In ChEMBL document CHEMBL1136580, “Enterolosaponins A and B, novel triterpene bisdesmosides from Enterolobium contortisiliquum, and evaluation for their macrophage-oriented cytotoxic activity” (Bioorg Med Chem Lett, 2003):

Assay: Compound was tested for its cytotoxic activity against BACI.2F5 mouse macrophages
Settings: read-out: LD50 (the source's name)

Structure (SMILES): CC(=O)N[C@@H]1[C@H](O[C@H]2CC[C@]3(C)[C@H]4CC=C5[C@@H]6CC(C)(C)[C@@H](OC(=O)/C=C/c7ccccc7)C[C@]6(C(=O)O[C@@H]6O[C@@H](CO)[C@@H](O)[C@H](O)[C@@H]6O[C@@H]6O[C@@H](C)[C@H](O[C@@H]7O[C@@H](CO)[C@H](O)[C@H]7O)[C@H](O[C@@H]7O[C@@H](CO)[C@@H](O)[C@H](O)[C@@H]7O)[C@H]6O)CC[C@@]5(C)[C@]4(C)CC[C@H]3C2(C)C)O[C@@H](CO[C@@H]2OC[C@H](O)[C@@H](O)[C@@H]2O[C@@H]2OC[C@@H](O)[C@H](O)[C@@H]2O)[C@@H](O)[C@@H]1O
- CC50: ≤ 3000 nM
